According to patent US11219618B2, “Pyridylpyridone compounds” (Sprint Bioscience AB, priority 2017, dated 2022):

Key:
[1] = tested on: autophagy in HOS cells (GFP-LC3); test: High content screening autophagy assay (GFP-LC3 foci); assay type: cell-based; details: Homo sapiens; HOS cells expressing GFP-LC3; autophagy activated with KU-0063794 500 nM plus Bafilomycin A1 5 nM; 6 hours; foci area per cell; read-out: Median IC50 (μM) Cellular assay
Method: Human osteosarcoma cells (HOS) stably expressing a Green Fluorescent Protein (GFP) tagged LC3 (GFP-LC3) were used to determine the inhibitory effect on autophagy of proprietary compounds. For that purpose, autophagy was activated by using the mTOR inhibitor KU-0063794 at 500 nM in the presence of Bafilomycin A1 (Sigma-Aldrich) at 5 nM. Shortly, cells were plated overnight in clear bottom 96-well plates in DMEM—High Modified media (Hi-Clone Cat #SH30285.01). At the start of the experiment, the media was removed and replaced with fresh media containing the mTOR inhibitor, Bafilomycin A1 and the vehicle or a test compound as indicated. After 6 hours the media was removed, cells were washed twice with ice-cold phosphate buffered saline (PBS) and fixed with 4% paraformaldehyde for 20 minutes at room temperature. Then the cells were washed twice with ice-cold PBS before adding Hoechst 33342 at 1 μg/ml in PBS for nuclear staining. After incubation overnight at 4° C., cells were washed once with PBS to remove the excess of dye and 100 μl of PBS was added to each well. Images were acquired at 20× magnification, 6 images per well, using the ImageXpress automated microscope (Molecular Devices Inc.) and analyzed with MetaXpress software to identify LC3-GFP foci. Foci area per cell values were used to generate dose response curves and […] were calculated using the non-linear fitting analysis in GraphPad Prism software.
The results of the assay are shown in Table 2 (Median IC50 μM HOS-LC3).

[2] = target: Vps34 enzyme (Homo sapiens (Human), UniProt Q8NEB9); test: Vps34 biochemical assay (Adapta kinase assay); details: 20 μM ATP and 200 μM PI:PS in substrate mix, 1 h at room temperature, TR-FRET, read-out: Median IC50 nM Adapta
Chain of Vps34 enzyme (Q8NEB9 whole entry): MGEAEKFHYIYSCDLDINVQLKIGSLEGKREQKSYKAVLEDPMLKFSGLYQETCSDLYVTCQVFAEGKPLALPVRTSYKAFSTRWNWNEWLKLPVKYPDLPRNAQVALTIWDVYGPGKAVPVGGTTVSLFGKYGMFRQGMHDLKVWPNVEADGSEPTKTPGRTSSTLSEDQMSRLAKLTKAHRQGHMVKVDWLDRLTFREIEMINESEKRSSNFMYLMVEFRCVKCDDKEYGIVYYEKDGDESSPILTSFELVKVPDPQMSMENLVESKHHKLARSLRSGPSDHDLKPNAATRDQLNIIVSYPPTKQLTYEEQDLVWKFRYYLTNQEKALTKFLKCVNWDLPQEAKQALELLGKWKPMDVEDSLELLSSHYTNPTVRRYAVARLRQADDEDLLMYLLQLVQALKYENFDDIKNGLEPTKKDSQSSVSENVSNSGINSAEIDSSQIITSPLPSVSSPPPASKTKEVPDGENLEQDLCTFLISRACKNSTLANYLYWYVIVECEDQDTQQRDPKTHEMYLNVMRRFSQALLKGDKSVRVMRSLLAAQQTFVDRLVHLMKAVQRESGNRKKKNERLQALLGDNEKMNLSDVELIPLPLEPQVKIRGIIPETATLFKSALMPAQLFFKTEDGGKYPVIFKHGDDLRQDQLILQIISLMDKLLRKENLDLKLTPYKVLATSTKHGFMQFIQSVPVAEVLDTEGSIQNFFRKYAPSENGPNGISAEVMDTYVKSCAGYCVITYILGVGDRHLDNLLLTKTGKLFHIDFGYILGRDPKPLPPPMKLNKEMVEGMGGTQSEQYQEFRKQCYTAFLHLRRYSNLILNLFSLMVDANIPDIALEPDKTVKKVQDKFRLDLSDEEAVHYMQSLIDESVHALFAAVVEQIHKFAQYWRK
Method: Dilution series of compounds of the invention were prepared in DMSO at 100 times the final assay concentration (n1=n0/3 in 10 points). The compounds were further diluted to 4 times the assay concentration in assay buffer (Life technologies buffer Q, PV5125, diluted 5 times supplemented with 2 mM DTT and 2 mM MnCl2). 2.5 μl of the diluted compounds were added to a 384 well assay plate followed by 2.5 μl of 16.5 nM Vps34 enzyme (Life technologies, PV5126). Enzyme and compounds were pre-incubated at rt for 15 min. Then 5 μl of substrate mix containing 20 μM ATP (Life technologies, PV3227) and 200 μM PI:PS substrate (Life technologies, PV5122) in assay buffer was added to the wells containing compound and enzyme. Mixing was performed by pipetting several times. The reaction was incubated at room temperature for 1 h. Then 5 μl stop-detection mix, prepared as described in the Adapta kinase assay kit instructions (Life technologies, PV5099) containing Adapta Eu-anti-ADP antibody (2.3 nM), Alexa Fluor 647 ADP tracer (9 nM) and EDTA (30 mM) in TR-FRET buffer, was added to quench the reaction. Mixing was performed by pipetting several times. The assay plate was then incubated at room temperature for 30 min and read with Artemis micro plate reader. Percent inhibition of the compounds as compared to DMSO treated control samples was calculated. By the use of Dotmatics software compound concentration versus percent inhibition was fitted to generate IC50 values.

IC50 [1] [µM] | IC50 [2] [nM] | Structure (SMILES)
0.742 | 45 | Nc1cc(-c2cc(-c3ccccc3Cl)[nH]c(=O)c2)ccn1 [Example 11, 4-(2-Amino-4-pyridyl)-6-(2-chlorophenyl)-1H-pyridin-2-one]
0.02 | < 5 | COC(=O)Nc1cc(-c2cc(-c3ccccc3C(F)(F)F)[nH]c(=O)c2)ccn1 [Example 48, Methyl N-[4-[2-oxo-6-[2-(trifluoromethyl)phenyl]-1H-pyridin-4-yl]-2-pyridyl]carbamate]
0.02 | < 5 | CCS(=O)(=O)N1CCN(c2cc(-c3ccnc(NC(C)=O)c3)cc(=O)[nH]2)C(C(F)(F)F)C1 (stereo not drawn) [Example 30, N-[4-[2-[4-ethylsulfonyl-2-(trifluoromethyl)piperazin-1-yl]-6-oxo-1H-pyridin-4-yl]-2-pyridyl]acetamide]
0.029 | < 5 | COC(=O)Nc1cc(-c2cc(-c3ccccc3Cl)[nH]c(=O)c2)ccn1 [Example 50, Methyl N-[4-[2-(2-chlorophenyl)-6-oxo-1H-pyridin-4-yl]-2-pyridyl]carbamate]
– | < 5 | COC(=O)Nc1cc(-c2cc(N3CCCCC3C(F)(F)F)[nH]c(=O)c2)ccn1 (stereo not drawn) [Example 70, Methyl N-[4-[2-oxo-6-[2-(trifluoromethyl)-1-piperidyl]-1H-pyridin-4-yl]-2-pyridyl]carbamate]
– | < 5 | CC(=O)Nc1cc(-c2cc(-c3cnccc3C)[nH]c(=O)c2)ccn1 [Example 40, N-[4-[2-(4-methyl-3-pyridyl)-6-oxo-1H-pyridin-4-yl]-2-pyridyl]acetamide]
0.113 | < 5 | CC(=O)Nc1cc(-c2cc(N3CCOCC3C(F)(F)F)[nH]c(=O)c2)ccn1 (stereo not drawn) [Example 26, N-[4-[2-oxo-6-[3-(trifluoromethyl)morpholin-4-yl]-1H-pyridin-4-yl]-2-pyridyl]acetamide]
– | 147 | O=C(Nc1cc(-c2cc(-c3ccccc3C(F)(F)F)[nH]c(=O)c2)ccn1)N1CCCC1 [Example 66, N-[4-[2-oxo-6-[2-(trifluoromethyl)phenyl]-1H-pyridin-4-yl]-2-pyridyl]pyrrolidine-1-carboxamide]
0.022 | < 5 | COC(=O)Nc1cc(-c2cc(-c3cccnc3C(F)(F)F)[nH]c(=O)c2)ccn1 [Example 52, Methyl N-[4-[2-oxo-6-[2-(trifluoromethyl)-3-pyridyl]-1H-pyridin-4-yl]-2-pyridyl]carbamate]
– | 5 | CC(=O)Nc1cc(-c2cc(N3CCOCC3C3CC3)[nH]c(=O)c2)ccn1 (stereo not drawn) [Example 32, N-[4-[2-(3-cyclopropylmorpholin-4-yl)-6-oxo-1H-pyridin-4-yl]-2-pyridyl]acetamide]
– | 26 | COC(C)(C)C1CCCN1c1cc(-c2ccnc(NC(C)=O)c2)cc(=O)[nH]1 (stereo not drawn) [Example 68, N-[4-[2-[2-(1-methoxy-1-methyl-ethyl)pyrrolidin-1-yl]-6-oxo-1H-pyridin-4-yl]-2-pyridyl]acetamide]
0.063 | < 5 | CC(=O)Nc1cc(-c2cc(-c3ccccc3C(F)(F)F)[nH]c(=O)c2)ccn1 [Example 34, N-[4-[2-oxo-6-[2-(trifluoromethyl)phenyl]-1H-pyridin-4-yl]-2-pyridyl]acetamide]
– | < 5 | CC(=O)Nc1cc(-c2cc(-c3cccnc3C)[nH]c(=O)c2)ccn1 [Example 38, N-[4-[2-(2-methyl-3-pyridyl)-6-oxo-1H-pyridin-4-yl]-2-pyridyl]acetamide]
0.067 | 12 | CC(=O)Nc1cc(-c2cc(N3CCCCC3C(F)(F)F)[nH]c(=O)c2)ccn1 (stereo not drawn) [Example 19, N-[4-[2-oxo-6-[2-(trifluoromethyl)-1-piperidyl]-1H-pyridin-4-yl]-2-pyridyl]acetamide]
– | 410 | Nc1cc(-c2cc(-c3cccnc3)[nH]c(=O)c2)ccn1 [Example 5, 4-(2-Amino-4-pyridyl)-6-(3-pyridyl)-1H-pyridin-2-one]
0.016 | < 5 | O=C(Nc1cc(-c2cc(N3CCCCC3C(F)(F)F)[nH]c(=O)c2)ccn1)C1CC1 (stereo not drawn) [Example 21, N-[4-[2-oxo-6-[2-(trifluoromethyl)-1-piperidyl]-1H-pyridin-4-yl]-2-pyridyl]cyclopropanecarboxamide]
0.046 | < 5 | CC(=O)Nc1cc(-c2cc(-c3cscc3C(F)(F)F)[nH]c(=O)c2)ccn1 [Example 42, N-[4-[2-oxo-6-[4-(trifluoromethyl)-3-thienyl]-1H-pyridin-4-yl]-2-pyridyl]acetamide]
0.138 | < 5 | CCn1cc(-c2cc(-c3ccnc(NC(C)=O)c3)cc(=O)[nH]2)c(C(F)(F)F)n1 [Example 44, N-[4-[2-[1-ethyl-3-(trifluoromethyl)pyrazol-4-yl]-6-oxo-1H-pyridin-4-yl]-2-pyridyl]acetamide]
0.026 | – | CC(=O)Nc1cc(-c2cc(-c3ccccc3Cl)[nH]c(=O)c2)ccn1 [Example 1, N-[4-[2-(2-chlorophenyl)-6-oxo-1H-pyridin-4-yl]-2-pyridyl]acetamide]
0.105 | < 5 | CCn1cc(-c2cc(-c3ccnc(NC(=O)OC)c3)cc(=O)[nH]2)c(C(F)(F)F)n1 [Example 54, Methyl N-[4-[2-[1-ethyl-3-(trifluoromethyl)pyrazol-4-yl]-6-oxo-1H-pyridin-4-yl]-2-pyridyl]carbamate]
0.023 | < 5 | COC(=O)Nc1cc(-c2cc(N3CCOCC3C(F)(F)F)[nH]c(=O)c2)ccn1 (stereo not drawn) [Example 45, Methyl N-[4-[2-oxo-6-[3-(trifluoromethyl)morpholin-4-yl]-1H-pyridin-4-yl]-2-pyridyl]carbamate]
– | 50 | CN(C)C(=O)Nc1cc(-c2cc(-c3ccccc3C(F)(F)F)[nH]c(=O)c2)ccn1 [Example 62, 1,1-Dimethyl-3-[4-[2-oxo-6-[2-(trifluoromethyl)phenyl]-1H-pyridin-4-yl]-2-pyridyl]urea]
0.092 | < 5 | CC(=O)Nc1cc(-c2cc(-c3cccnc3C(F)(F)F)[nH]c(=O)c2)ccn1 [Example 36, N-[4-[2-oxo-6-[2-(trifluoromethyl)-3-pyridyl]-1H-pyridin-4-yl]-2-pyridyl]acetamide]
0.147 | 7 | COCC(=O)Nc1cc(-c2cc(-c3ccccc3Cl)[nH]c(=O)c2)ccn1 [Example 12, N-[4-[2-(2-chlorophenyl)-6-oxo-1H-pyridin-4-yl]-2-pyridyl]-2-methoxy-acetamide]
